Some results are limits rather than exact numbers.

For 38 molecules, EC50 results are on record in US20250320227A1, “MACROCYCLIC OREXIN RECEPTOR AGONISTS AND USES THEREOF” (Jazz Pharmaceuticals Ireland Limited, priority 2022, published 2025).

This assay deals with T1, human recombinant OX2 (hOX2) receptors expressed in CHO cells (Homo sapiens, UniProt O43614).
T1 construct: host or cells: CHO cells (hOX2-CHO)
T1 sequence (O43614 1-444): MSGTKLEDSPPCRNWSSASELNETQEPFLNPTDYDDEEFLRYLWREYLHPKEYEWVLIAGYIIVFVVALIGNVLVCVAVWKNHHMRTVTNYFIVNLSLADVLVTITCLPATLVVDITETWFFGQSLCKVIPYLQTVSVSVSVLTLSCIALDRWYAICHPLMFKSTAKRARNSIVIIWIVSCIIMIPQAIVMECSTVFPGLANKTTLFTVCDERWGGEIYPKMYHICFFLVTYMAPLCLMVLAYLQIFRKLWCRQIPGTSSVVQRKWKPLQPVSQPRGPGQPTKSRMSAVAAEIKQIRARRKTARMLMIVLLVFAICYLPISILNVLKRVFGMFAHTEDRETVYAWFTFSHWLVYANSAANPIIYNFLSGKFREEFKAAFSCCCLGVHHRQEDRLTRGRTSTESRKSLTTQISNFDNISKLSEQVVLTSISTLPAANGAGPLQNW
The experiment in a line: IP-1 accumulation assay (IP-One HTRF) in hOX2-CHO cells. It counts as cell-based. To be noted: 60 min incubation at 37° C., mean of at least two independent experiments, read-out: EC50_OX2R Category. Here is the method: The accumulation of Inositol-1 Monophosphate (IP-1) was measured using IP-One HTRF® Terbium cryptate based assay (Cisbio) in human recombinant OX1 (hOX1) and at OX2 (hOX2) receptors expressed in CHO cells (DiscoverX) according to the manufacturer's instructions for cells tested in suspension.
hOX1-CHO and hOX2-CHO cells were seeded into white 384-well plates at a density of 20,000 cells/well in Hank's Balanced Salt Solution (HBSS) containing 20 mM HEPES pH 7.4, 50 mM, LiCl and 0.1% and Bovine Serum Albumin (BSA).
Compounds of disclosure were tested in an 11 points concentration response curve (CRC) serially diluted in neat DMSO at 200 fold concentrations and added by Echo acoustic liquid handling (Labcyte) to the cells (0.5% DMSO final in the assay). After 60 min of incubation at 37° C. detection reagents, IP1-d2 tracer and anti-IP1-cryptate were diluted in lysis buffer according to the manufacturer's descriptions and added to the cells.
Following 60 min incubation at room temperature, time-resolved fluorescence (HTRF) was measured at 615 nm and 665 nm by Envision Multilabel reader (Perkin Elmer) and the HTRF ratio (A665/A615×10^4) was calculated.
The IP-1 accumulation response was expressed as percentage of the maximal OX-A response.
Curve fitting and EC50 estimations were carried out using a four-parameter logistic model using XLfit Software. Mean data of EC50 are calculated from at least two independent experiments performed in duplicates
(Time-resolved FRET reads energy transfer from a long-lived donor to a nearby acceptor.)
Take `C[C@@H]1C[C@]2(COCC(=O)N2)[C@H]2CO[C@H]3CC[C@H](CC3)c3cccc(F)c3OCC(=O)N12` (single isomer, unassigned) [Example 15b]: the EC50 lay in the range of 1000 to 10000 nM.

As to `C[C@@H]1C[C@@]2(COCC(=O)N2)[C@@H]2CO[C@H]3CC[C@H](CC3)c3cc(F)cc(F)c3OCC(=O)N12` (single isomer, unassigned) [Example 16a], the EC50 is < 100 nM.

For `C[C@@H]1C[C@]2(COCC(=O)N2)[C@H]2CO[C@H]3CC[C@H](CC3)c3cc(F)cc(F)c3OCC(=O)N12` (single isomer, unassigned) [Example 16b], the EC50 is > 10000 nM.

`C[C@@H]1C[C@]2(COCC(=O)N2)[C@H]2CO[C@H]3CC[C@H](CC3)c3c(F)cccc3OCC(=O)N12` (single isomer, unassigned) [Example 17b]: the EC50 is 1000 to 10000 nM.

With `C[C@@H]1C[C@@]2(COCC(=O)N2)[C@@H]2CO[C@H]3CC[C@H](CC3)c3cc(F)ccc3OCC(=O)N12` (single isomer, unassigned) [Example 18a], the EC50 was < 100 nM.

Regarding `C[C@@H]1C[C@]2(COCC(=O)N2)[C@H]2CO[C@H]3CC[C@H](CC3)c3cc(F)ccc3OCC(=O)N12` (single isomer, unassigned) [Example 18b], the EC50 is > 10000 nM.

Turning to `C[C@@H]1C[C@@]2(COCC(=O)N2)[C@@H]2CO[C@H]3CC[C@H](CC3)c3ccc(F)cc3OCC(=O)N12` (single isomer, unassigned) [Example 19a], the EC50 is < 100 nM.

`C[C@@H]1C[C@@]2(COCC(=O)N2)[C@@H]2CO[C@H]3CC[C@H](CC3)c3cccc(Cl)c3OCC(=O)N12` (single isomer, unassigned) [Example 20a]: the EC50 lay within 1000 to 10000 nM.

Regarding `C[C@@H]1C[C@]2(COCC(=O)N2)[C@H]2CO[C@H]3CC[C@H](CC3)c3cccc(Cl)c3OCC(=O)N12` (single isomer, unassigned) [Example 20b], the EC50 was > 10000 nM.

On to `C[C@@H]1C[C@@]2(COCC(=O)N2)[C@@H]2CO[C@H]3CC[C@H](CC3)c3cc(Cl)ccc3OCC(=O)N12` (single isomer, unassigned) [Example 21a], for which the EC50 was in the range of 100 to 1000 nM.

For `C[C@@H]1C[C@]2(COCC(=O)N2)[C@H]2CO[C@H]3CC[C@H](CC3)c3cc(Cl)ccc3OCC(=O)N12` (single isomer, unassigned) [Example 21b], the EC50 was > 10000 nM.

As for `Cc1ccc2c(c1)[C@H]1CC[C@H](CC1)OC[C@@H]1N(C(=O)CO2)[C@H](C)C[C@@]12COCC(=O)N2` (single isomer, unassigned) [Example 22a], the EC50 was < 100 nM.

Regarding `Cc1ccc2c(c1)[C@H]1CC[C@H](CC1)OC[C@H]1N(C(=O)CO2)[C@H](C)C[C@]12COCC(=O)N2` (single isomer, unassigned) [Example 22b], the EC50 is > 10000 nM.

Consider `C[C@@H]1C[C@@]2(COCC(=O)N2)[C@@H]2CO[C@H]3CC[C@H](CC3)c3cccnc3OCC(=O)N12` (single isomer, unassigned) [Example 23a], for which the EC50 lay in the range of 100 to 1000 nM.

As for `C[C@@H]1C[C@]2(COCC(=O)N2)[C@H]2CO[C@H]3CC[C@H](CC3)c3cccnc3OCC(=O)N12` (single isomer, unassigned) [Example 23b], the EC50 is 1000 to 10000 nM.

On to `C[C@@H]1C[C@]2(COCC(=O)N2)[C@H]2CO[C@H]3CC[C@H](CC3)c3cccc(F)c3OCCC(=O)N12` (single isomer, unassigned) [Example 24b], for which the EC50 was 100 to 1000 nM.

Turning to `O=C1COC[C@@]2(CCCN3C(=O)COc4ccccc4[C@H]4CC[C@H](CC4)OC[C@H]32)N1` (single isomer, unassigned) [Example 32a], the EC50 was < 100 nM.

With `O=C1COC[C@]2(CCCN3C(=O)COc4ccccc4[C@H]4CC[C@H](CC4)OC[C@@H]32)N1` (single isomer, unassigned) [Example 32b], the EC50 is > 10000 nM.

In the case of `O=C1COC[C@@]2(CCCN3C(=O)CCOc4ccccc4[C@H]4CC[C@H](CC4)OC[C@H]32)N1` (single isomer, unassigned) [Example 33a], the EC50 is < 100 nM.

Regarding `O=C1COC[C@]2(CCCN3C(=O)CCOc4ccccc4[C@H]4CC[C@H](CC4)OC[C@@H]32)N1` (single isomer, unassigned) [Example 33b], the EC50 lay within 100 to 1000 nM.

On to `CC1Oc2ccccc2[C@H]2CC[C@H](CC2)OC[C@@H]2N(CCC[C@@]23COCC(=O)N3)C1=O` (single isomer, unassigned) [Example 35a], for which the EC50 is < 100 nM.

As for `CC1Oc2ccccc2[C@H]2CC[C@H](CC2)OC[C@H]2N(CCC[C@]23COCC(=O)N3)C1=O` (single isomer, unassigned) [Example 35b], the EC50 is > 10000 nM.

With `O=C1COC[C@@]2(CCCN3C(=O)C4(CC4)COc4ccccc4[C@H]4CC[C@H](CC4)OC[C@H]32)N1` (single isomer, unassigned) [Example 37a, (1′s,16′S,17′R,20′s)-dispiro[cyclopropane-1,10′-[8,19]dioxa-[12]azatetracyclo[18.2.2.0^2,70.0^12,17]tetracosane-16′,3″-morpholine]-2′(7′),3′,5′-triene-5″,11′-dione], the EC50 was < 100 nM.

In the case of `O=C1COC[C@]2(CCCN3C(=O)C4(CC4)COc4ccccc4[C@H]4CC[C@H](CC4)OC[C@@H]32)N1` (single isomer, unassigned) [Example 37b, (1′s,16′R,17′S,20′s)-dispiro[cyclopropane-1,10′-[8,19]dioxa-[12]azatetracyclo[18.2.2.0^2,70.0^12,17]tetracosane-16′,3″-morpholine]-2′(7′),3′,5′-triene-5″,11′-dione], the EC50 was 1000 to 10000 nM.

As to `O=C1COC[C@@]2(CCCN3C(=O)COc4c(F)cccc4[C@H]4CC[C@H](CC4)OC[C@H]32)N1` (single isomer, unassigned) [Example 38a], the EC50 is < 100 nM.

`O=C1COC[C@]2(CCCN3C(=O)COc4c(F)cccc4[C@H]4CC[C@H](CC4)OC[C@@H]32)N1` (single isomer, unassigned) [Example 38b]: the EC50 was in the range of 1000 to 10000 nM.

`O=C1COC[C@@]2(CCCN3C(=O)COc4c(F)cc(F)cc4[C@H]4CC[C@H](CC4)OC[C@H]32)N1` (single isomer, unassigned) [Example 39a]: the EC50 was > 10000 nM.

For the molecule `O=C1COC[C@]2(CCCN3C(=O)COc4c(F)cc(F)cc4[C@H]4CC[C@H](CC4)OC[C@@H]32)N1` (single isomer, unassigned) [Example 39b], the EC50 was < 100 nM.

For `O=C1COC[C@@]2(CCCN3C(=O)COc4cccc(F)c4[C@H]4CC[C@H](CC4)OC[C@H]32)N1` (single isomer, unassigned) [Example 40a], the EC50 was < 100 nM.

Take `O=C1COC[C@]2(CCCN3C(=O)COc4cccc(F)c4[C@H]4CC[C@H](CC4)OC[C@@H]32)N1` (single isomer, unassigned) [Example 40b]: the EC50 was in the range of 1000 to 10000 nM.

In the case of `O=C1COC[C@@]2(CCCN3C(=O)COc4ccc(F)cc4[C@H]4CC[C@H](CC4)OC[C@H]32)N1` (single isomer, unassigned) [Example 41a], the EC50 is < 100 nM.

For the molecule `O=C1COC[C@]2(CCCN3C(=O)COc4ccc(F)cc4[C@H]4CC[C@H](CC4)OC[C@@H]32)N1` (single isomer, unassigned) [Example 41b], the EC50 lay within 1000 to 10000 nM.

Regarding `O=C1COC[C@@]2(CCCN3C(=O)COc4cc(F)cc(F)c4[C@H]4CC[C@H](CC4)OC[C@H]32)N1` (single isomer, unassigned) [Example 42a], the EC50 was < 100 nM.

`O=C1COC[C@]2(CCCN3C(=O)COc4cc(F)cc(F)c4[C@H]4CC[C@H](CC4)OC[C@@H]32)N1` (single isomer, unassigned) [Example 42b]: the EC50 fell in the range of 100 to 1000 nM.

For `O=C1COC[C@@]2(CCCN3C(=O)COc4ccc(F)c(F)c4[C@H]4CC[C@H](CC4)OC[C@H]32)N1` (single isomer, unassigned) [Example 43a], the EC50 is < 100 nM.

With `O=C1COC[C@]2(CCCN3C(=O)COc4ccc(F)c(F)c4[C@H]4CC[C@H](CC4)OC[C@@H]32)N1` (single isomer, unassigned) [Example 43b], the EC50 was > 10000 nM.

Take `O=C1COC[C@@]2(CCCN3C(=O)COc4c(F)ccc(F)c4[C@H]4CC[C@H](CC4)OC[C@H]32)N1` (single isomer, unassigned) [Example 44a]: the EC50 is < 100 nM.

With `O=C1COC[C@]2(CCCN3C(=O)COc4c(F)ccc(F)c4[C@H]4CC[C@H](CC4)OC[C@@H]32)N1` (single isomer, unassigned) [Example 44b], the EC50 is > 10000 nM.
